Laboratory results published in patent publication US20220267269A1, “COMPOUNDS FOR THE MODULATION OF PROPROTEIN CONVERTASE SUBTILISIN/KEXIN TYPE 9 (PCSK9)” (SRX Cardio, LLC, priority 2019, published 2022).

Test system: not listed separately
Experiment: Microsomal stability analysis, mouse
Assay type: in vitro ADME
Conditions: pH 7.4; mouse liver microsomes, 1 μM test compound; read-out: Microsomal Stability t1/2
Protocol: (§1) Microsomal stability was determined as follows:
(§2) The assay was carried out in 96-well microtiter plates at 37° C. Reaction mixtures (25 μL) contained a final concentration of 1 μM test compound, 0.5 mg/mL liver microsomes protein, and 1 mM NADPH and/or 1 mM UDPGA (with alamethicin) in 100 mM potassium phosphate, pH 7.4 buffer with 3 mM MgCl2. At each of the time points (for example, 0, 15, 30, and 60 minutes), 150 μL of quench solution (100% acetonitrile with 0.1% formic acid) with internal standard was transferred to each well. Besides the zero minute controls, mixtures containing the same components except the NADPH can also be prepared as the negative control. Verapamil was included as a positive control to verify assay performance. Plates were sealed, vortexed, and centrifuged at 4° C. for 15 minutes at 4000 rpm. The supernatant was transferred to fresh plates for LC/MS/MS analysis. The extent of metabolism was calculated as the disappearance of the test compound, compared to the 0-min time incubation. Initial rates were calculated for the compound concentration and used to determine t½ values.

Compound	half-life at 1 μM [min]
Fc1ccc(-c2ccc(C3CCCN(CC4CC4)C3)cc2)cc1 (stereo not shown) [Compound 1,001, 1-(cyclopropylmethyl)-3-(4′-fluoro-[1,1′-biphenyl]-4-yl)piperidine]	25
c1ccc(-c2ccc(C3CCCN(CC4CCCC4)C3)cc2)cc1 (stereo not shown) [Compound 1,006, 3-([1,1′-biphenyl]-4-yl)-1-(cyclopentylmethyl)piperidine]	28
Fc1ccc(-c2ccc(C3CCCN(CC4CCCC4)C3)cc2)cc1 (stereo not shown) [Compound 1,009, 1-(cyclopentylmethyl)-3-(4′-fluoro-[1,1′-biphenyl]-4-yl)piperidine]	67
Clc1ccc(-c2ccc(C3CCCN(CC4CCCC4)C3)cc2)cc1 (stereo not shown) [Compound 1,010, 3-(4′-chloro-[1,1′-biphenyl]-4-yl)-1-(cyclopentylmethyl)piperidine]	76
FC(F)(F)c1ccc(-c2ccc(C3CCCN(CC4CCCC4)C3)cc2)cc1 (stereo not shown) [Compound 1,011, 1-(cyclopentylmethyl)-3-(4′-(trifluoromethyl)-[1,1′-biphenyl]-4-yl)piperidine]	61

Target: T1, PCSK9 (Homo sapiens, UniProt Q8NBP7)
T1 construct: purchased Cayman Chemical 20631
T1 sequence (Q8NBP7 153-692): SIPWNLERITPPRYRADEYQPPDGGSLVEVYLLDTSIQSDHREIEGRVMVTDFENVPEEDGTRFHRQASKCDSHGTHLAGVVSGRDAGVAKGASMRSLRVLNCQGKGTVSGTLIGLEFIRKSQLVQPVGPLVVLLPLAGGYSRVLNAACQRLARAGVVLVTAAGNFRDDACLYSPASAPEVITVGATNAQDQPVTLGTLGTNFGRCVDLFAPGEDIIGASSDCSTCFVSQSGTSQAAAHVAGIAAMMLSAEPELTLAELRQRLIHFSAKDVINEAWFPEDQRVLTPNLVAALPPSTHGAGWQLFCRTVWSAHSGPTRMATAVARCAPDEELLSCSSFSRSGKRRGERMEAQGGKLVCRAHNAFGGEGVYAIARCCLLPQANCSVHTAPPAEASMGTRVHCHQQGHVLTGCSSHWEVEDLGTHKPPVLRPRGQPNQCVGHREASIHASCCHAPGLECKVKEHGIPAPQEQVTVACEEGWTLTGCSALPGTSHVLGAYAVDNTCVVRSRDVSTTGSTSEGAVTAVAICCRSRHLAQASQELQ
Experiment: Biodesy direct binding measurement (second harmonic generation)
Conditions: Biodesy Delta System
Text: Direct binding can be measured using the commercially available Biodesy Delta System (BDS, http://www.biodesy.com/products/; accessed Aug. 1, 2018). The BDS is a laser-based approach that utilizes second harmonic generation from a labeled protein to detect ligand binding, the method of which is covered and described by U.S. Pat. Nos. 9,395,358 and 8,932,822, and has been commercialized by Biodesy Inc. (South San Francisco, Calif.).

Compound	ΔSHG [%]
Fc1ccc(-c2ccc(C3CCCN(CC4CC4)C3)cc2)cc1 (stereo not shown) [Compound 1,001, 1-(cyclopropylmethyl)-3-(4′-fluoro-[1,1′-biphenyl]-4-yl)piperidine]	> 10

Test system: not listed separately
Experiment: Microsomal stability analysis, human
Assay type: in vitro ADME
Conditions: pH 7.4; human liver microsomes, 1 μM test compound; read-out: Microsomal Stability t1/2
Protocol: as §1, §2

Compound	half-life at 1 μM [min]
Fc1ccc(-c2ccc(C3CCCN(CC4CC4)C3)cc2)cc1 (stereo not shown) [Compound 1,001, 1-(cyclopropylmethyl)-3-(4′-fluoro-[1,1′-biphenyl]-4-yl)piperidine]	> 120
c1ccc(-c2ccc(C3CCCN(CC4CCCC4)C3)cc2)cc1 (stereo not shown) [Compound 1,006, 3-([1,1′-biphenyl]-4-yl)-1-(cyclopentylmethyl)piperidine]	22
Fc1ccc(-c2ccc(C3CCCN(CC4CCCC4)C3)cc2)cc1 (stereo not shown) [Compound 1,009, 1-(cyclopentylmethyl)-3-(4′-fluoro-[1,1′-biphenyl]-4-yl)piperidine]	86
Clc1ccc(-c2ccc(C3CCCN(CC4CCCC4)C3)cc2)cc1 (stereo not shown) [Compound 1,010, 3-(4′-chloro-[1,1′-biphenyl]-4-yl)-1-(cyclopentylmethyl)piperidine]	> 120
FC(F)(F)c1ccc(-c2ccc(C3CCCN(CC4CCCC4)C3)cc2)cc1 (stereo not shown) [Compound 1,011, 1-(cyclopentylmethyl)-3-(4′-(trifluoromethyl)-[1,1′-biphenyl]-4-yl)piperidine]	> 120

Target: T1, PCSK9
Experiment: LDLR flow cytometric analysis (LDLR recovery in cells treated with recombinant PCSK9)
Assay type: cell-based
Conditions: not given
Protocol: LDLR levels were measured using flow cytometry or fluorescence activated cell sorting (FACS) using protocols adapted from Benjannet et al., “Effects of the prosegment and pH on the activity of PCSK9: evidence for additional processing events” J Biol Chem. 285(52): 40965-40978 (2010) and “Composition and Methods of Use of Small Molecules as Binding Ligands for the Modulation of Proprotein Convertase Subtilisin/Kexin Type 9 (PCSK9) Protein Activity” (WO2016029037), which are incorporated by reference in their entirety.
Cells, such as HepG2, HuH7, FL83B, or a cell line transfected with a short-hairpin PCSK9 knockdown sequence such as HepG2/shPCSK9, HuH7/shPCSK9, or FL83B/shPCSK9 were cultured in media composed of complete, high glucose DMEM (Invitrogen) with 10% fetal bovine serum (Life Technologies), supplemented with penicillin-streptomycin (Life Technologies). Cells were plated in a 24-well plate, at 125 k cells/well, and cultured at 37° C. for 12-24 h. Culture media was removed and replaced with fresh culture media or culture media plus a predetermined amount of recombinant PCSK9 (for example, a final PCSK9 concentration of 5 μg/mL; Cayman Chemical, Ann Arbor, Mich., Catalog #20631). Wells evaluating test compounds were dosed with concentrations ranging from 0 nM to 100 μM.
Following an incubation period of 4-6 hours at 37° C., the media was removed and the cells rinsed by adding 0.5 ml of complete D-PBS (i.e., Dulbecco's phosphate buffered saline (D-PBS, Life Technologies) supplemented with 0.5% bovine serum albumin (BSA, Sigma) and 1 g/L glucose (Sigma)). The wash media was carefully aspirated, and cells released from the plate using 200 μL of TrypLE Express (Life Technologies) by incubating for 5-10 minutes at 37° C. The TrypLE-Cell suspension was inactivated by adding 100 μL of Fetal Bovine Serum, transferred to a v-bottom plate, and centrifuged at 250×gravity for 5 minutes. Following centrifugation, the supernatant was aspirated and the cell pellet is resuspended in 100 μL of complete D-PBS, and centrifuged at 250×gravity for 5 minutes. Following centrifugation, the supernatant was aspirated and the cell pellet was resuspended in 100 μL of antibody staining solution (600 μL of anti-LDLr-PE in complete D-PBS) and incubated on ice, protected from light, for 30 minutes. The cells were then pelleted by centrifugation, resuspended in 100 μL of 4′,6-Diamidino-2-phenylindole (DAPI, Cayman Chemical) or 7-aminoactinomycin D (7AAD, Life Technologies) staining solution to measure cell viability.
(§3) Cells were analyzed for both cell viability marker (dead cells) and LDLR in live cells using a flow cytometer per the manufacturer's operating manual. Cells incubated with small molecule compounds that are inhibitors of PCSK9 will be expected to show increased amounts of LDLR, relative to control (no compound) specimens, and cells incubated with small molecule compounds that are activators of PCSK9 will be expected to show decreased amounts of LDLR relative to control (no compound) specimens.
The percentage recovery in the LDLR assay at 10 μM concentration is provided as follows: +++: >80% recovery; ++: 40-80% recovery; +: 0-40% recovery.
The LDL-R EC50 is provided as follows: +++: <1; ++: 1 μM-5 μM; +: >5 μM.

Compound	EC50 [µM]
c1ccc(-c2ccc(C3CCCN(C4CCCC4)C3)cc2)cc1 (stereo not shown) [1,003, 3-([1,1′-biphenyl]-4-yl)-1-cyclopentylpiperidine]	1 to 5
c1cc(-c2ccc(C3CCCN(CC4CCCC4)C3)cc2)ccn1 (stereo not shown) [1,005, 4-(4-(1-(cyclopentylmethyl)piperidin-3-yl)phenyl) pyridine]	1 to 5
Fc1ccc(-c2ccc(C3CCCN(CC4CC4)C3)cc2)cc1 (stereo not shown) [Compound 1,001, 1-(cyclopropylmethyl)-3-(4′-fluoro-[1,1′-biphenyl]-4-yl)piperidine]	1 to 5
c1ccc(-c2ccc(C3CCCN(CC4CCCC4)C3)cc2)cc1 (stereo not shown) [Compound 1,006, 3-([1,1′-biphenyl]-4-yl)-1-(cyclopentylmethyl)piperidine]	1 to 5
Fc1ccc(-c2ccc(C3CCCN(CC4CCCC4)C3)cc2)cc1 (stereo not shown) [Compound 1,009, 1-(cyclopentylmethyl)-3-(4′-fluoro-[1,1′-biphenyl]-4-yl)piperidine]	1 to 5
Clc1ccc(-c2ccc(C3CCCN(CC4CCCC4)C3)cc2)cc1 (stereo not shown) [Compound 1,010, 3-(4′-chloro-[1,1′-biphenyl]-4-yl)-1-(cyclopentylmethyl)piperidine]	> 5
FC(F)(F)c1ccc(-c2ccc(C3CCCN(CC4CCCC4)C3)cc2)cc1 (stereo not shown) [Compound 1,011, 1-(cyclopentylmethyl)-3-(4′-(trifluoromethyl)-[1,1′-biphenyl]-4-yl)piperidine]	< 1
Fc1ccc(-c2ccc(C3CCCN(Cc4ccccc4)C3)cc2)cc1 (stereo not shown) [Compound 1,035, 1-benzyl-3-(4′-fluoro-[1,1′-biphenyl]-4-yl)piperidine]	> 5

Target: T1, PCSK9
Experiment: Fluorescent-LDL uptake analysis by flow cytometric analysis
Assay type: cell-based
Conditions: not given
Protocol: Cells, such as HuH7, FL83B, or a cell line transfected with a short-hairpin PCSK9 knockdown sequence such as HuH7/shPCSK9 or FL83B/shPCSK9 were plated and cultured at 37° C. for 12-24 h. Culture media was removed and replaced with fresh lipoprotein-depleted culture media supplemented with 5 μg/mL of fluorescently labeled LDL or lipoprotein-depleted culture media supplemented with 5 μg/mL of fluorescently labeled LDL plus a concentration of recombinant PCSK9 (for example 5 μg/mL recombinant PCSK9; Cayman Chemical, Cat. #20631). Examples of fluorescently labeled LDL include: DiI-LDL (Kalen Biomedical), or LDL conjugated to Dylight (e.g., LDL-Dylight 488, or LDL-Dylight 550 (Cayman Chemical, Cat. #10011229)). Lipoprotein-depleted culture media was composed of DMEM (Invitrogen) with 10% lipoprotein-depleted fetal bovine serum (Kalen Biomedical) and supplemented with penicillin-streptomycin (Life Technologies). Cells were dosed with small molecule test compounds at doses ranging from 0 nM to 100 μM, following a protocol adapted from Benjannet et al., “Effects of the prosegment and pH on the activity of PCSK9: evidence for additional processing events” J Biol Chem. 285(52):40965-40978 (2010), which is incorporated by reference in its entirety.
Following an incubation period of specified length, such as 16 hours, the lipoprotein-depleted media was removed and cells rinsed three times with a rinse solution (Dulbecco's phosphate buffered saline (D-PBS, Life Technologies), supplemented with 0.5% bovine serum albumin (BSA, Sigma) and 1 g/L glucose (Sigma)). The fluid was then removed, and cells are released from the plate using TrypLE Express (Life Technologies) per manufacturer's recommended procedures, such as incubation for 5-10 minutes at 37° C. The TyrpLE-Cell suspension was then transferred to 15 mL conical tubes, volume was increased to 2 mL with D-PBS supplemented with 0.5% BSA, and […], and the tubes were centrifuged at 250×gravity for 10 minutes. Following centrifugation, the supernatant was aspirated and the cell pellet was resuspended in 300 μL PBS and counterstained with 4′,6-diamidino-2-phenylindole (DAPI, Cayman Chemical) as a cell viability marker, other cell viability markers such as 7-aminoactinomycin D (7AAD, Life Technologies) have also been described in the art.
as §3, with “analyzed by” for “analyzed”, “both 7AAD” for “both cell viability marker”, “and fluorescent LDL” for “and LDLR”, “of LDL fluorescence,” for “of LDLR,”, “of LDL fluorescence” for “of LDLR”
The LDL-uptake EC50 is provided as follows: +++: <0.5 μM; ++: 0.5-1μM; +: >1 μM.

Compound	EC50 [nM]
FC(F)(F)c1cccc(-c2ccc(C3CCCN(CC4CCCC4)C3)cc2)c1 (stereo not shown) [1,013, 1-(cyclopentylmethyl)-3-(3′-(trifluoromethyl)-[1,1′-biphenyl]-4-yl)piperidine]	> 1000
FC(F)(F)c1cc(C2CCCN(CC3CCOC3)C2)ccc1-c1ccccc1 (stereo not shown) [1,027, 1-((tetrahydrofuran-3-yl)methyl)-3-(2-(trifluoromethyl)-[1,1′-biphenyl]-4-yl)piperidine]	> 1000
Fc1cc(F)cc(-c2ccc(C3CCCN(CC4CCCC4)C3)cc2)c1 (stereo not shown) [1,029, 1-(cyclopentylmethyl)-3-(3′,5′-difluoro-[1,1′-biphenyl]-4-yl)piperidine]	500 to 1000
Cc1cc(-c2ccc(Cl)cc2)ccc1C1CCCN(CC2CCCC2)C1 (stereo not shown) [1,039, 3-(4′-chloro-3-methyl-[1,1′-biphenyl]-4-yl)-1-(cyclopentylmethyl) piperidine]	500 to 1000
Cc1cc(C2CCCN(C3CCCC3)C2)ccc1-c1ccc(Cl)cc1 (stereo not shown) [1,040, 3-(4′-chloro-2-methyl-[1,1′-biphenyl]-4-yl)-1-cyclopentylpiperidine]	500 to 1000
c1ccc(-c2ccc(C3CCCN(CC4CCCC4)C3)cc2)cc1 (stereo not shown) [Compound 1,006, 3-([1,1′-biphenyl]-4-yl)-1-(cyclopentylmethyl)piperidine]	500 to 1000
Fc1ccc(-c2ccc(C3CCCN(CC4CCCC4)C3)cc2)cc1 (stereo not shown) [Compound 1,009, 1-(cyclopentylmethyl)-3-(4′-fluoro-[1,1′-biphenyl]-4-yl)piperidine]	< 500
Clc1ccc(-c2ccc(C3CCCN(CC4CCCC4)C3)cc2)cc1 (stereo not shown) [Compound 1,010, 3-(4′-chloro-[1,1′-biphenyl]-4-yl)-1-(cyclopentylmethyl)piperidine]	< 500
FC(F)(F)c1ccc(-c2ccc(C3CCCN(CC4CCCC4)C3)cc2)cc1 (stereo not shown) [Compound 1,011, 1-(cyclopentylmethyl)-3-(4′-(trifluoromethyl)-[1,1′-biphenyl]-4-yl)piperidine]	< 500
Fc1ccc(-c2ccc(C3CCCN(Cc4ccccc4)C3)cc2)cc1 (stereo not shown) [Compound 1,035, 1-benzyl-3-(4′-fluoro-[1,1′-biphenyl]-4-yl)piperidine]	500 to 1000

Test system: not listed separately
Experiment: Microsomal stability analysis, rat
Assay type: in vitro ADME
Conditions: pH 7.4; rat liver microsomes, 1 μM test compound; read-out: Microsomal Stability t1/2
Protocol: as §1, §2

Compound	half-life at 1 μM [min]
Fc1ccc(-c2ccc(C3CCCN(CC4CC4)C3)cc2)cc1 (stereo not shown) [Compound 1,001, 1-(cyclopropylmethyl)-3-(4′-fluoro-[1,1′-biphenyl]-4-yl)piperidine]	10
c1ccc(-c2ccc(C3CCCN(CC4CCCC4)C3)cc2)cc1 (stereo not shown) [Compound 1,006, 3-([1,1′-biphenyl]-4-yl)-1-(cyclopentylmethyl)piperidine]	13
Fc1ccc(-c2ccc(C3CCCN(CC4CCCC4)C3)cc2)cc1 (stereo not shown) [Compound 1,009, 1-(cyclopentylmethyl)-3-(4′-fluoro-[1,1′-biphenyl]-4-yl)piperidine]	13
Clc1ccc(-c2ccc(C3CCCN(CC4CCCC4)C3)cc2)cc1 (stereo not shown) [Compound 1,010, 3-(4′-chloro-[1,1′-biphenyl]-4-yl)-1-(cyclopentylmethyl)piperidine]	15
FC(F)(F)c1ccc(-c2ccc(C3CCCN(CC4CCCC4)C3)cc2)cc1 (stereo not shown) [Compound 1,011, 1-(cyclopentylmethyl)-3-(4′-(trifluoromethyl)-[1,1′-biphenyl]-4-yl)piperidine]	17
